SMILES strings stand for the structures. Values joined by “and” are separate entries in the source; they are usually repeats but may differ in a detail not shown here. Equal entries are not always repeated.

Usually IC50 stands for the concentration that gives 50% inhibition.

This experiment relates to Clostridium difficile clinical isolate growth, OD600, 24 h. The experiment in a line: growth modulation of Clostridium difficile isolate – OD600, 9-point, retest, dose response (AID 1224920).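 Also: inhibitors lower culture turbidity so OD600 falls.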

As to `Cc1ccccc1-c1ccc([C@H]2[C@@H](CO)N3CCCCN(C(=O)Nc4ccc(F)cc4)C[C@H]23)cc1`, the IC50 is 27.4 µM.
Turning to `COc1cc(CN2C[C@@H]3N[C@H](C2)C3c2ccc(-c3cccc(OC)c3)cc2)cc(OC)c1` (some centres undefined), the IC50 is 13 µM and 14 µM.
The result for `COc1ccccc1C#Cc1ccc2c(c1)[C@H]1[C@H](CCN1C(=O)c1ccncc1)[C@H](CO)N2` reads 63.5 µM.
The result for `COc1ccc(NC(=O)N2CCCCN3[C@H](CO)[C@H](c4ccc(C#Cc5ccccc5)cc4)[C@H]3C2)cc1` reads 27.5 µM; that for `COc1ccccc1CN1CC[C@@H]2[C@H](CO)Nc3ccc(C#Cc4ccccc4)cc3[C@@H]21`, 31.2 µM; that for `O=C(Nc1ccc(F)cc1)N1CCCCN2[C@H](CO)[C@H](c3ccc(-c4ccccc4F)cc3)[C@H]2C1`, 55.9 µM.
The result for `Cc1ccccc1-c1ccc(C2[C@@H]3CN(S(=O)(=O)Cc4ccccc4)C[C@H]2N3)cc1` (some centres undefined) reads 33.8 µM.
In the case of `COc1ccc(S(=O)(=O)N2CCCCN3[C@H](CO)[C@H](c4ccc(C5=CCCCC5)cc4)[C@H]3C2)cc1`, the IC50 is 29.5 µM.
For the molecule `O=C(Nc1cccc(F)c1)N1CCCCN2[C@H](CO)[C@H](c3ccc(C#CC4CC4)cc3)[C@H]2C1`, the IC50 was 47.6 µM.
With `COc1cccc(S(=O)(=O)N2[C@@H]3CNC[C@H]2C3c2ccc(/C=C/c3ccccc3)cc2)c1` (some centres undefined), the IC50 is 23.9 µM.
The result for `C[C@@H]1CN([C@@H](C)CO)C(=O)c2cccc(NC(=O)Nc3ccc(C(F)(F)F)cc3)c2O[C@H]1CN(C)C(=O)Nc1ccc(C(F)(F)F)cc1` reads 22.2 µM.
The same measure for `COc1ccc(C#Cc2ccc([C@H]3[C@@H](CO)N4CCCCN(C(=O)Nc5cccc(F)c5)C[C@H]34)cc2)cc1`: 4.44 µM.
The result for `COc1ccc(C#Cc2ccc([C@@H]3[C@@H](CO)N4CCCCN(Cc5ccccc5F)C[C@H]34)cc2)cc1` reads 7.31 µM; that for `COc1ccc(C#Cc2ccc([C@@H]3[C@@H](CO)N4CCCCN(C(=O)Nc5ccc(F)cc5)C[C@H]34)cc2)cc1`, 20.6 µM; that for `OC[C@@H]1Nc2ccc(-c3ccc(F)cc3)cc2[C@H]2[C@@H]1CCN2Cc1ccc(F)cc1`, 90.2 µM.
For `COc1cccc(-c2ccc(C3[C@@H]4CN(Cc5cccc(F)c5)C[C@H]3N4)cc2)c1` (some centres undefined), the IC50 is 9.52 µM and 7.62 µM.
The same measure for `COc1ccc(NC(=O)N2CCCCN3[C@@H](CO)[C@@H](c4ccc(C#Cc5ccccc5)cc4)[C@@H]3C2)cc1`: 16.2 µM; for `COc1ccc(C#Cc2ccc([C@H]3[C@H](CO)N4CCCCN(Cc5ccccc5F)C[C@@H]34)cc2)cc1`: 11 µM; for `OC[C@H]1[C@@H](c2ccc(C#CC3CCCC3)cc2)[C@@H]2CN(CCC(F)(F)F)CCCCN12`: 48.2 µM.
With `C/C=C/c1ccc(C2[C@H]3CNC[C@@H]2N3C(=O)Nc2cccc(Cl)c2)cc1` (some centres undefined), the IC50 is 54.4 µM.
The same measure for `COc1cccc(-c2ccc(C3[C@@H]4CN(S(=O)(=O)c5ccccc5F)C[C@H]3N4)cc2)c1` (some centres undefined): 82 µM; for `CCNC(=O)C[C@@H]1CC[C@@H]2[C@H](COC[C@@H](O)CN2C(=O)Nc2ccc(C(F)(F)F)cc2)O1`: 31.6 µM.
Take `O=C(NC[C@@H]1N[C@@H](CO)[C@H]1c1ccc(C2=CCCCC2)cc1)c1ccccc1`: the IC50 was 65.8 µM.
The result for `Cc1ccccc1-c1ccc(C2[C@H]3CNC[C@@H]2N3S(=O)(=O)c2ccc(Cl)cc2)cc1` (some centres undefined) reads 35.8 µM.
Take `O=C(Nc1ccc(F)cc1)N1CCCCN2[C@@H](CO)[C@@H](c3ccc(-c4cccc(F)c4)cc3)[C@@H]2C1`: the IC50 was 13.2 µM.
As for `CC(C)CC#Cc1ccc([C@H]2[C@@H](CO)N3CCCCN(C(=O)Nc4ccccc4)C[C@H]23)cc1`, the half-inhibitory concentration (IC50) is 12.8 µM.
In the case of `C/C=C/c1ccc(C2[C@H]3CNC[C@@H]2N3Cc2cccc(F)c2)cc1` (some centres undefined), the IC50 is 31.1 µM.
The result for `COc1cccc(CN2C[C@@H]3N[C@H](C2)C3c2ccc(-c3ccccc3C)cc2)c1` (some centres undefined) reads 5.48 µM and 13.3 µM; that for `Cc1cccc(-c2ccc(C3[C@H]4CNC[C@@H]3N4C(=O)Nc3ccccc3Cl)cc2)c1` (some centres undefined), 33.2 µM.
With `COc1ccc(C#Cc2ccc([C@@H]3[C@H](CO)N4CCCCN(Cc5ccccc5F)C[C@@H]34)cc2)cc1`, the IC50 is 8.12 µM.
The result for `COc1ccc2c3c(n(C)c2c1)[C@@H](CO)NCC31CN(Cc2ccc(Cl)cc2)C1` reads 50 µM.
The same measure for `Cc1cccc(-c2ccc(C3[C@@H]4CN(C(=O)Nc5ccc(C(F)(F)F)cc5)C[C@H]3N4)cc2)c1` (some centres undefined): 2.73 µM and 2.52 µM; for `Cc1ccc(-c2ccc(C3[C@@H]4CN(S(=O)(=O)c5cccc(C)c5)C[C@H]3N4)cc2)cc1` (some centres undefined): 8.64 µM; for `COc1ccccc1NC(=O)N1CCCCN2[C@H](CO)[C@H](c3ccc(-c4ccc(C)cc4)cc3)[C@H]2C1`: 14.5 µM.
For `COc1cccc(-c2ccc3c(c2)[C@H]2[C@H](CCN2Cc2ccccc2OC)[C@H](CO)N3)c1`, the IC50 was 56.5 µM.
The same measure for `Cc1ccccc1-c1ccc(C2[C@H]3CNC[C@@H]2N3C(=O)Nc2ccc(C(F)(F)F)cc2)cc1` (some centres undefined): 17.4 µM; for `OC[C@H]1[C@@H](c2ccc(-c3ccc(F)cc3)cc2)[C@@H]2CN(CCC(F)(F)F)CCCCN12`: 72.8 µM.
As to `Cc1ccc(-c2ccc([C@H]3[C@@H](CO)N4CCCCN(C(=O)Nc5ccccc5)C[C@H]34)cc2)cc1`, the IC50 was 37.7 µM.
The same measure for `O=C(Nc1cccc(F)c1)N1CCCCN2[C@H](CO)[C@@H](c3ccc(-c4ccccc4F)cc3)[C@H]2C1`: 29.7 µM; for `O=C(Nc1cccc(F)c1)N1CCCCN2[C@@H](CO)[C@@H](c3ccc(C#CC4CC4)cc3)[C@@H]2C1`: 35.4 µM.
`COc1ccc(C#Cc2ccc([C@@H]3[C@H]4CN(Cc5ccccc5F)CCCCN4[C@H]3CO)cc2)cc1`: the IC50 is 13.7 µM.
For the molecule `COc1ccc(C#Cc2ccc([C@H]3[C@H](CO)N4CCCCN(C(=O)Nc5ccc(F)cc5)C[C@@H]34)cc2)cc1`, the IC50 is 5.67 µM.
The same measure for `Cc1ccc(-c2ccc([C@@H]3[C@@H]4CN(Cc5ccccc5F)C[C@H]3N4)cc2)cc1`: 4.19 µM.
The result for `O=C(C1CCC1)N1C[C@@H]2N[C@H](C1)C2c1ccc(/C=C/c2ccccc2)cc1` (some centres undefined) reads 74.4 µM; that for `c1ccc(CN2C[C@@H]3N[C@H](C2)C3c2ccc(-c3ccccc3)cc2)cc1` (some centres undefined), 18.9 µM and 26.2 µM; that for `O=C(c1ccc(F)cc1)N1C[C@@H]2N[C@H](C1)C2c1ccc(/C=C/c2ccccc2)cc1` (some centres undefined), 13 µM.
The result for `COc1ccccc1CN1C[C@@H]2N[C@H](C1)C2c1ccc(-c2ccc(C#N)cc2)cc1` (some centres undefined) reads 45.1 µM; that for `O=C(Nc1ccccc1F)N1C[C@@H]2N[C@H](C1)C2c1ccc(/C=C/c2ccccc2)cc1` (some centres undefined), 12.5 µM; that for `COc1ccccc1NC(=O)N1CCCCN2[C@@H](CO)[C@H](c3ccc(-c4cccc(C)c4)cc3)[C@@H]2C1`, 93.9 µM.
Turning to `COc1ccccc1C#Cc1ccc2c(c1)[C@H]1[C@H](CCN1C(=O)c1ccc(F)cc1)[C@@H](CO)N2`, the IC50 is below 0.5 µM.
On to `Cc1cccc(-c2ccc([C@H]3[C@H](CO)N4CCCCN(CCC(F)(F)F)C[C@@H]34)cc2)c1`, for which the IC50 is 68.9 µM.
The same measure for `COc1ccc(-c2ccc(C3[C@@H]4CN(Cc5cc(OC)cc(OC)c5)C[C@H]3N4)cc2)cc1` (some centres undefined): 6.55 µM and 25.8 µM; for `O=C(Nc1ccccc1F)N1CCCCN2[C@@H](CO)[C@@H](c3ccc(/C=C/c4ccccc4)cc3)[C@@H]2C1`: 11.5 µM; for `OC[C@@H]1[C@H](c2ccc(C3=CCCCC3)cc2)[C@@H]2CN(CCC(F)(F)F)CCCCN12`: 34.9 µM.

These data come from PubChem BioAssay AID1224920 (Broad Institute, 2016).
